Measurements from patent US9296720B2, “Carboxamide-substituted heteroaryl-pyrazoles and the use thereof” (AiCuris GmbH & Co. KG, priority 2011, dated 2016).
Read-outs that look alike come from different tables or passages of the source.

Columns and labels:
Format in all cases: cell-based
[1] = test system: HIV-1LAI Wild Type; test: AlamarBlue viability assay, HIV-1LAI-infected MT4 cells; settings: 10% FCS
Procedure, shortened: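 MT4 cells infected with HIV-1LAI (MOI 0.01, supernatant infection) cultured 5 days at 37 °C with compounds in RPMI with 2% or 10% FCS, 1% DMSO final. AlamarBlue fluorescence after 3 h; EC50 as 50% protection relative to uninfected cells, CC50 from high-concentration cytotoxicity.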

[2] = test system: HIV-1NL4-3 K103N-Y181C; test: Luminescence reduction assay, MT4 cells infected with HIV-1NL4-3 luciferase reporter virus, RT mutant K103N-Y181C
Procedure, shortened: (§1)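 MT4 cells pellet-infected 2 h at 37° C with HIV-1NL4-3 reporter virus (lu164 replacing nef; wild type or site-directed RT mutants), washed, then incubated with compound dilutions (1% DMSO, 2% or 10% FCS) for 5 days. Secreted luciferase read with coelenterazine buffer; EC50 = concentration halving RLU versus untreated infected cells.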

[3] = test system: HIV-1NL4-3 Wild Type; test: Luminescence reduction assay, MT4 cells infected with HIV-1NL4-3 luciferase reporter virus, wild type; settings: 2% FCS
Procedure, shortened: as §1

[4] = Human immunodeficiency virus 1, MT4, MT4 cells
[5] = Human immunodeficiency virus 1, MT4, read-out: EC50 (μM) MT4 Cells HIV-1NL4-3 K103N-Y181C 2% FCS, MT4 cells, HIV-1NL4-3 K103N-Y181C, 2% FCS
[6] = read-out: EC50 (μM) MT4 Cells HIV-1NL4-3 K103N-Y181C 2% FCS, MT4 cells, HIV-1NL4-3 K103N-Y181C, 2% FCS

## O=C1CN(C(=O)c2cc(-c3cc(Br)cc(OC(F)(F)F)c3)n(-c3ccnc(C(F)(F)F)c3)n2)CCN1 [Example 116, 4-({5-[3-Bromo-5-(trifluoromethoxy)phenyl]-1-[2-(trifluoromethyl)pyridin-4-yl]-1H-pyrazol-3-yl}carbonyl)piperazin-2-one]
[1]; [4]
  EC50: > 3.3 µM
[2]; [5]
  EC50: 0.896 µM
[3]; [4]
  EC50: 0.648 µM

## O=C1CN(C(=O)c2cc(-c3cc(F)cc(Cl)c3)n(-c3ccnc(C(F)(F)F)c3)n2)CN1 [Example 16, 1-({5-(3-Chloro-5-fluorophenyl)-1-[2-(trifluoromethyl)pyridin-4-yl]-1H-pyrazol-3-yl}carbonyl)imidazolidin-4-one]
[1]; [4]
  EC50: 0.49 µM
[2]; [5]
  EC50: 0.339 µM
[3]; [4]
  EC50: 0.055 µM

## O=C1CN(C(=O)c2cc(-c3cc(F)cc(Cl)c3)n(-c3cccc(Cl)n3)n2)CN1 [Example 2, 1-{[5-(3-Chloro-5-fluorophenyl)-1-(6-chloropyridin-2-yl)-1H-pyrazol-3-yl]carbonyl}imidazolidin-4-one]
[1]; [4]
  EC50: > 3.3 µM
[2]; [5]
  EC50: > 3.3 µM
[3]; [4]
  EC50: 0.272 µM

## Cc1cc(-n2nc(C(=O)N3CCSC3)cc2-c2cc(F)cc(Cl)c2)ccn1 [Example 23, [5-(3-Chloro-5-fluorophenyl)-1-(2-methylpyridin-4-yl)-1H-pyrazol-3-yl](1,3-thiazolidin-3-yl)methanone]
[1]; [4]
  EC50: > 3.3 µM
[2]; [5]
  EC50: > 3.3 µM
[3]; [4]
  EC50: 0.439 µM

## O=C1CN(C(=O)c2cc(-c3cc(F)cc(OCC(F)(F)F)c3)n(-c3cccnc3)n2)CCN1 [Example 71, 4-({5-[3-Fluoro-5-(2,2,2-trifluoroethoxy)phenyl]-1-(pyridin-3-yl)-1H-pyrazol-3-yl}carbonyl)piperazin-2-one]
[1]; [4]
  EC50: 0.246 µM
[2]; [5]
  EC50: > 3.3 µM
[3]; [4]
  EC50: 0.013 µM

## O=C1CN(C(=O)c2cc(-c3cncc(Cl)c3)n(-c3ccc(F)c(Cl)c3)n2)CCN1 [Example 101, 4-{[1-(3-Chloro-4-fluorophenyl)-5-(5-chloropyridin-3-yl)-1H-pyrazol-3-yl]carbonyl}piperazin-2-one]
[1]; [4]
  EC50: 0.034 µM
[2]; [5]
  EC50: 0.088 µM
[3]; [4]
  EC50: 0.016 µM

## O=C1CN(C(=O)c2cc(-c3cncc(C(F)(F)F)c3)n(-c3ccc(F)c(Cl)c3)n2)CN1 [Example 106, 1-({1-(3-Chloro-4-fluorophenyl)-5-[5-(trifluoromethyl)pyridin-3-yl]-1H-pyrazol-3-yl}carbonyl)imidazolidin-4-one]
[1]; [4]
  EC50: 0.084 µM
[2]; [5]
  EC50: 0.12 µM
[3]; [4]
  EC50: 0.082 µM

## O=C1CN(C(=O)c2cc(-c3cncc(OC(F)F)c3)n(-c3ccc(F)c(Cl)c3)n2)CN1 [Example 105, 1-({1-(3-Chloro-4-fluorophenyl)-5-[5-(difluoromethoxy)pyridin-3-yl]-1H-pyrazol-3-yl}carbonyl)imidazolidin-4-one]
[1]; [4]
  EC50: 0.116 µM
[2]; [5]
  EC50: 0.007 µM
[3]; [4]
  EC50: 0.018 µM

## O=C1CN(C(=O)c2cc(-c3cc(F)cc(Cl)c3)n(-c3cccnc3)n2)CCN1 [Example 4, 4-{[5-(3-Chloro-5-fluorophenyl)-1-(pyridin-3-yl)-1H-pyrazol-3-yl]carbonyl}piperazin-2-one]
[1]; [4]
  EC50: 0.108 µM
[2]; [5]
  EC50: 0.132 µM
[3]; [4]
  EC50: 0.036 µM

## O=C1CN(C(=O)c2cc(-c3cc(Cl)cc(OC(F)(F)F)c3)n(-c3cccnc3)n2)CN1 [Example 76, 1-({5-[3-Chloro-5-(trifluoromethoxy)phenyl]-1-(pyridin-3-yl)-1H-pyrazol-3-yl}carbonyl)imidazolidin-4-one]
[1]; [4]
  EC50: 0.207 µM
[2]; [5]
  EC50: 0.019 µM
[3]; [4]
  EC50: 0.014 µM

## O=C1CN(C(=O)c2cc(-c3cc(F)cc(Cl)c3)n(-c3ccccn3)n2)CN1 [Example 1, 1-{[5-(3-Chloro-5-fluorophenyl)-1-(pyridin-2-yl)-1H-pyrazol-3-yl]carbonyl}imidazolidin-4-one]
[1]; [4]
  EC50: > 3.3 µM
[2]; [5]
  EC50: > 3.3 µM
[3]; [4]
  EC50: 0.345 µM

## O=C1CN(C(=O)c2cc(-c3cc(F)cc(Cl)c3)n(-c3cncc(Cl)c3)n2)CN1 [Example 9, 1-{[5-(3-Chloro-5-fluorophenyl)-1-(5-chloropyridin-3-yl)-1H-pyrazol-3-yl]carbonyl}imidazolidin-4-one]
[1]; [4]
  EC50: 0.149 µM
[2]; [5]
  EC50: 0.32 µM
[3]; [4]
  EC50: 0.035 µM

## O=C1CN(C(=O)c2cc(-c3cc(Br)cc(OC(F)(F)F)c3)n(-c3cccnc3)n2)CCN1 [Example 29, 4-({5-[3-Bromo-5-(trifluoromethoxy)phenyl]-1-(pyridin-3-yl)-1H-pyrazol-3-yl}carbonyl)piperazin-2-one]
[1]; [4]
  EC50: 0.097 µM
[2]; [5]
  EC50: 0.032 µM
[3]; [4]
  EC50: 0.012 µM

## O=C(c1cc(-c2cc(Cl)cc(OC(F)(F)F)c2)n(-c2cccnc2)n1)N1CCSC1 [Example 77, {5-[3-Chloro-5-(trifluoromethoxy)phenyl]-1-(pyridin-3-yl)-1H-pyrazol-3-yl}(1,3-thiazolidin-3-yl)methanone]
[1]; [4]
  EC50: 0.861 µM
[2]; [5]
  EC50: 0.364 µM
[3]; [4]
  EC50: 0.067 µM

## Cc1cc(-n2nc(C(=O)N3CCNC(=O)C3)cc2-c2cc(Br)cc(OC(F)(F)F)c2)ccn1 [Example 54, 4-({5-[3-Bromo-5-(trifluoromethoxy)phenyl]-1-(2-methylpyridin-4-yl)-1H-pyrazol-3-yl}carbonyl)piperazin-2-one]
[1]; [4]
  EC50: 1.68 µM
[2]; [5]
  EC50: 0.387 µM
[3]; [4]
  EC50: 0.323 µM

## O=C1CN(C(=O)c2cc(-c3cc(F)cc(OCC(F)(F)F)c3)n(-c3cccnc3)n2)CN1 [Example 70, 1-({5-[3-Fluoro-5-(2,2,2-trifluoroethoxy)phenyl]-1-(pyridin-3-yl)-1H-pyrazol-3-yl}carbonyl)imidazolidin-4-one]
[1]; [4]
  EC50: 0.034 µM
[2]; [5]
  EC50: 0.315 µM
[3]; [4]
  EC50: < 0.002 µM

## O=C(c1cc(-c2cc(F)cc(OCC(F)(F)F)c2)n(-c2ccc[n+]([O-])c2)n1)N1CCS(=O)(=O)C1 [Example 75, (1,1-Dioxido-1,3-thiazolidin-3-yl) {5-[3-fluoro-5-(2,2,2-trifluoroethoxy)phenyl]-1-(1-oxidopyridin-3-yl)-1H-pyrazol-3-yl}methanone]
[1]; [4]
  EC50: > 3.3 µM
[2]; [5]
  EC50: > 3.3 µM
[3]; [4]
  EC50: 0.272 µM

## O=C(c1cc(-c2cc(F)cc(OC(F)(F)F)c2)n(-c2cccnc2)n1)N1CC[S+]([O-])C1 (racemic) [Example 60-1, {5-[3-Fluoro-5-(trifluoromethoxy)phenyl]-1-(pyridin-3-yl)-1H-pyrazol-3-yl}(1-oxido-1,3-thiazolidin-3-yl)methanone]
[1]; MT4 cells
  EC50: > 3.3 µM
[2]; [6]
  EC50: > 3.3 µM
[3]; MT4 cells
  EC50: 0.431 µM

## O=C1CN(C(=O)c2cc(-c3cc(Br)cc(OC(F)(F)F)c3)n(-c3ccc(F)nc3)n2)CCN1 [Example 40, 4-({5-[3-Bromo-5-(trifluoromethoxy)phenyl]-1-(6-fluoropyridin-3-yl)-1H-pyrazol-3-yl}carbonyl)piperazin-2-one]
[1]; [4]
  EC50: 0.213 µM
[2]; [5]
  EC50: 0.044 µM
[3]; [4]
  EC50: 0.013 µM

## O=C(c1cc(-c2cc(F)cc(Cl)c2)n(-c2cccnc2)n1)N1CC[S+]([O-])C1 (racemic) [Example 6-1, [5-(3-Chloro-5-fluorophenyl)-1-(pyridin-3-yl)-1H-pyrazol-3-yl](1-oxido-1,3-thiazolidin-3-yl)methanone]
[1]; MT4 cells
  EC50: 1.49 µM
[2]; [6]
  EC50: > 3.3 µM
[3]; MT4 cells
  EC50: 0.255 µM

## O=C(c1cc(-c2cc(Br)cc(OC(F)(F)F)c2)n(-c2cccnc2)n1)N1CC[S+]([O-])C1 (racemic) [Example 31, {5-[3-Bromo-5-(trifluoromethoxy)phenyl]-1-(pyridin-3-yl)-1H-pyrazol-3-yl}(1-oxido-1,3-thiazolidin-3-yl)methanone]
[1]; MT4 cells
  EC50: 0.18 µM
[2]; [6]
  EC50: 0.045 µM
[3]; MT4 cells
  EC50: 0.017 µM
